Consider 19 compounds from patent US5827860A, “Peptidyl heterocycles useful in the treatment of thrombin related disorders” (Ortho Pharmaceutical Corporation, priority 1995, dated 1998).

A short description of one series: Ex vivo bioavailability assay, drug administered i.v. and p.o. The conditions noted are these: male rats, p.o. vs i.v., drug in plasma extrapolated from thrombin inhibition. On the procedure: Bioavailability was determined by an ex vivo assay which incorporated hydrolysis rates from drug administered both i.v. and p.o. In this assay male rats were prepared as described above with a teflon tube implanted in their femoral artery.
A standard curve was generated by adding of drug or vehicle (100 μL) to whole blood (900 μL) followed by incubating (5 min) and centrifuging to obtain plasma. The percentage of thrombin inhibition was calculated by comparing the V0 of the vehicle to that of the drug treated samples. Datum from several runs were normalized with a statistical package (SAS) to generate a standard curve.
The percentage of thrombin inhibition in the treated animals was calculated by comparing the V0 prior to treatment with the V0 obtained from samples collected after treatment. The percent inhibition was applied to the standard curve (generated above) using the statistical package (SAS) and the quantity of drug in the sample was extrapolated.
Bioavailability (Bioavail.) was calculated from the plots of the extrapolated drug in sample vs. time for both i.v. and p.o. administration using the following equation:
%Bioavail.=(i.v. dose administered/p.o. dose administered)×(area
under p.o. curve/area under curve i.v.)
For `CN[C@H](Cc1ccccc1)C(=O)N1CCC[C@H]1C(=O)N[C@@H](CCCNC(=N)N)C(=O)c1nc2ccccc2s1` [Compound 1, N-METHYL-D-PHENYLALANYL-N-[4-[(AMINOIMINOMETHYL)AMINO]-1S-[(BENXOTHIAZOL-2- YL)CARBONYL]BUTYL]-L-PROLINAMIDE], the Bioavail. is recorded as 1.2%.

Assay in another series: not given
The following applies: rat, in vivo, iv.
For `CN[C@H](Cc1ccccc1)C(=O)N1CCC[C@H]1C(=O)N[C@@H](CCCNC(=N)N)C(=O)c1nc2ccccc2s1` [Compound 1, N-METHYL-D-PHENYLALANYL-N-[4-[(AMINOIMINOMETHYL)AMINO]-1S-[(BENXOTHIAZOL-2- YL)CARBONYL]BUTYL]-L-PROLINAMIDE], the “t1/2 (time to half plasma elimination)” value was determined as 19 min.
With `CNC(Cc1ccccc1)C(=O)N1CCCC1C(=O)NC(CCCNC(=N)N)C(=O)c1nccs1` (centres unmarked) [Compound 4], the “t1/2 (time to half plasma elimination)” value is reported as 16 min.
On to `CN[C@H](Cc1ccccc1)C(=O)N1CCC[C@H]1C(=O)N[C@@H](CCCNC(=N)N)C(=O)c1nc2ccc(C(=O)OC)cc2s1` [Compound 12], for which the “t1/2 (time to half plasma elimination)” value amounted to 43 min.
Turning to `CN[C@H](Cc1ccccc1)C(=O)N1CCC[C@H]1C(=O)N[C@@H](CCCNC(=N)N)C(=O)c1nc2ccc(C(=O)O)cc2s1` [Compound 13], the “t1/2 (time to half plasma elimination)” value came out at 25 min.
As to `CN[C@H](Cc1ccccc1)C(=O)N1CCC[C@H]1C(=O)N[C@@H](CCCNC(=N)N)C(=O)c1nc2ccc(CO)cc2s1` [Compound 15], the “t1/2 (time to half plasma elimination)” value was 16 min.
The same measure, in the same setting: as for `CN[C@H](Cc1ccccc1)C(=O)N1CCC[C@H]1C(=O)N[C@@H](CCCNC(=N)N)C(=O)c1nc2ccc(F)cc2s1` [Compound 17], the figure is 8 min; as for `CCOC(=O)c1csc(C(=O)[C@H](CCCNC(=N)N)NC(=O)[C@@H]2CCCN2C(=O)[C@@H](Cc2ccccc2)NC)n1` [Compound 19], 14 min; as for `CNC(Cc1ccccc1)C(=O)N1CCCC1C(=O)NC(CCCNC(=N)N)C(=O)c1nc2ccccc2[nH]1` (centres unmarked) [Compound 21], 5 min.
In the case of `CN[C@H](CC1CCCCC1)C(=O)N1CCC[C@H]1C(=O)N[C@@H](CCCNC(=N)N)C(=O)c1nc2ccccc2s1` [Compound 29, N-METHYL-D-CYCLOHEXYLALANYL-N-[4-[(AMINOIMINOMETHYL)AMINO]-1S-[(BENXOTHIAZOL-2-YL)CARBONYL]BUTYL]-L-PROLINAMIDE], the “t1/2 (time to half plasma elimination)” value is given as 14 min.
Regarding `CN[C@H](Cc1c(F)c(F)c(F)c(F)c1F)C(=O)N1CCC[C@H]1C(=O)N[C@@H](CCCNC(=N)N)C(=O)c1nc2ccccc2s1` [Compound 30], the “t1/2 (time to half plasma elimination)” value is 6 min.
Same read-out and setting: as for `CN[C@H](Cc1ccc(F)cc1)C(=O)N1CCC[C@H]1C(=O)N[C@@H](CCCNC(=N)N)C(=O)c1nc2ccccc2s1` [Compound 32, N-METHYL-D-(4-FLUOROPHENYL)ALANYL-N-[4-[(AMINOIMINOMETHYL)AMINO]-1S-[(BENXOTHIAZOL-2-YL)CARBONYL]BUTYL]-L-PROLINAMIDE], the figure is 19 min; as for `CNC(C(=O)N1CCCC1C(=O)NC(CCCNC(=N)N)C(=O)c1nc2ccccc2s1)c1ccccc1` [Compound 33, N-METHYL-D-PHENYLGLYCYL-N-[4-[(AMINOIMINOMETHYL)AMINO]-1S-[(BENXOTHIAZOL-2- YL)CARBONYL]BUTYL]-L-PROLINAMIDE], 18 min.
In the case of `CC(=O)N[C@H](Cc1ccccc1)C(=O)N1CCC[C@H]1C(=O)N[C@@H](CCCNC(=N)N)C(=O)c1nc2ccccc2s1.O=C(O)C(F)(F)F` [Compound 35], the “t1/2 (time to half plasma elimination)” value was 11 min.
On the same count and under the same terms, as for `CN[C@@H](C(=O)N1CCC[C@H]1C(=O)N[C@@H](CCCNC(=N)N)C(=O)c1nc2ccccc2s1)C1CCCCC1` [Compound 37, N-METHYL-D-CYCLOHEXYLGLYCYL-N-[4-[(AMINOIMINOMETHYL)AMINO]-1S-[(BENXOTHIAZOL-2-YL)CARBONYL]BUTYL]-L-PROLINAMIDE], the figure is 42 min; as for `CN[C@H](Cc1ccccc1)C(=O)N1CCC[C@H]1C(=O)N[C@@H](CCCNC(=N)N)C(=O)c1nc2c(s1)CCCC2` [Compound 51], 17 min; as for `CN[C@H](Cc1ccccc1)C(=O)N1CCC[C@H]1C(=O)N[C@@H](CCCNC(=N)N)C(=O)c1nc2ccc3ccccc3c2s1` [Compound 52], 5 min.
In the case of `CN[C@H](Cc1ccccc1)C(=O)N1CCC[C@H]1C(=O)N[C@@H](CCCNC(=N)N)C(=O)c1nc(C(=O)O)cs1` [Compound 54], the “t1/2 (time to half plasma elimination)” value is 15 min.

The next series in a line: Ex vivo assay for duration of action after i.v. dosing (time to half plasma elimination). The conditions noted are these: male rats, from slope of V0 vs. time of plasma thrombin inhibition.
Procedure: An ex vivo assay was conducted to determine the duration of action of the compounds of Formula I. For this i.v. assay male rats (Long Evans, 350-500 g) were implanted with a teflon cannulae via the femoral artery while under anesthesia (pentobarbital i.p., 35 mg/kg). […] The animals were allowed to recover for at least 24 h after the surgical procedure.
The test compound was dispersed in water and delivered to the animal (0.25 mL) via the femoral vein. […] A plasma sample was obtained by centrifuging the blood at 10,000 rpm for 5 min. This sample is analyzed for thrombin inhibition using the chromogenic assay, described below.
Datum was collected over a 30 min period and the initial rate of substrate hydrolysis (V0 (mOD/min)) was calculated with an analysis program (Softmax, Molecular Devices).
The time to half plasma elimination (t 1/2) was calculated from the slope of V0 vs. time, using the following equation: t 1/2=-1.6 slope.
Consider `CN[C@H](Cc1ccccc1)C(=O)N1CCC[C@H]1C(=O)N[C@@H](CCCNC(=N)N)C(=O)c1nc2ccc(O)cc2s1` [Compound 25], for which the “t1/2 (time to half plasma elimination)” value worked out at 14 min.
Same read-out and setting: the value for `CNC(C(=O)N1CCC[C@H]1C(=O)N[C@@H](CCCNC(=N)N)C(=O)c1nc2ccccc2s1)c1ccccc1` (some centres unmarked) [Compound 34] was 26 min.
